In patent publication US20200008426A1, “ACTIVE COMPOUND COMBINATIONS” (BAYER AKTIENGESELLSCHAFT, priority 2017, published 2020):
Values joined by “and” are separate entries in the source; they are usually repeats but may differ in a detail not shown here. Equal values may be shown once. Read-outs that look alike come from different tables or passages of the source.

Assays:
Alternaria solani = experiment: In vivo preventive test on Alternaria (tomatoes)
Protocol: The plants are then placed in an incubation cabinet at approximately 20° C. and a relative atmospheric humidity of 100%.
(§1) The test is evaluated 3 days after the inoculation.

Colletotrichum coccodes = experiment: In vivo preventive test on Colletotrichum (tomatoes); settings: 3 days after inoculation
Protocol: as §1

Phakopsora pachyrhizi = experiment: In vivo preventive test on Phakopsora (soybeans); settings: 7 days after inoculation
Venturia inaequalis = experiment: In vivo preventive test on Venturia (apples); settings: 10 days after inoculation
Protocol: The test is evaluated 10 days after the inoculation.

Puccinia triticina = experiment: In vivo preventive Puccinia triticina test (wheat); settings: 8 days after inoculation
Protocol: After the spray coating has been dried, the plants are sprayed with a spore suspension of Puccinia triticina.
(§2) The test is evaluated 8 days after the inoculation.

Septoria tritici = experiment: In vivo preventive Septoria tritici test (wheat); settings: 21 days after inoculation
Protocol: After the spray coating has been dried, the plants are sprayed with a spore suspension of Septoria tritici.
The test is evaluated 21 days after the inoculation.

Alternaria alternata = experiment: In vitro-Test with Alternaria alternata; assay type: cell-based
Pyricularia oryzae = assay type: cell-based
[1] = tested on: fish (Danio rerio) embryos; experiment: In vivo ecotoxicity screening test on fish (Danio rerio); settings: active compound alone; fish embryos, 96 h, 28.5° C.
Protocol: with ECxi the Effect Concentration (EC) of each chemical i (in ppm) causing x % effect on the ecotoxicity test endpoint.
For each compound combination, the predicted ECx value is calculated. It is then compared to an experimentally measured value. The ratio of predicted versus measured effect for the combination (thereafter called the Model Deviation Ratio or MDR) is then calculated.
The environmental effect of the compound combinations was measured experimentally in laboratory ecotoxicity screening studies with fish (Danio rerio). […] Mortality was recorded after 96 h for each tested concentration and a reference control. […] Then, the MDR values were calculated.
• Solvent: 0.5% by weight dimethyl sulfoxide
This concentrate is then diluted with water to the desired a.i. concentration, leading to a maximal solvent concentration of 0.5% by weight. The compounds alone and the combinations were tested for five increasing concentrations between 0.01 and 1000 ppm a.i., (e.g. 0.1, 1.0, 10 and 100 ppm a.i). For the combinations, compounds A and B were mixed in a weight ratio of 5:1 to 1:5 and five increasing concentrations were tested for each ratio.

Sphaerotheca fuliginea = experiment: In vivo preventive test on Sphaerotheca (cucumbers); settings: Table D1, 7 days after inoculation
Pyrenophora teres = experiment: In vitro-Test with Pyrenophora teres; assay type: cell-based; settings: 100 ppm
Leptosphaeria nodorum = experiment: In vivo preventive Leptosphaeria nodorum test (wheat); settings: Table G1, 8 days after inoculation
Protocol: After the spray coating has been dried, the plants are sprayed with a spore suspension of Leptosphaeria nodorum.
as §2

[2] = Alternaria solani, 72 h, read-out: Efficacy in % found

## CCCN(CC)CC1COC2(CCC(C(C)(C)C)CC2)O1 (centres unmarked) [1.020 spiroxamine, spiroxamine]
Alternaria solani; Table A1, 25 ppm a.i., 3 days after inoculation
  Efficacy in % found: 13%
Alternaria solani; Table A1, 50 ppm a.i., 3 days after inoculation
  Efficacy in % found: 38%
Alternaria solani; Table A1, 100 ppm a.i., 3 days after inoculation
  Efficacy in % found: 49%
Colletotrichum coccodes; Table B1, 25 ppm a.i.
  Efficacy in % found: 33%
Colletotrichum coccodes; Table B1, 50 ppm a.i.
  Efficacy in % found: 44%
Colletotrichum coccodes; Table B1, 100 ppm a.i.
  Efficacy in % found: 49%
Phakopsora pachyrhizi; Table C1, 25 ppm a.i.
  Efficacy in % found: 23%
Phakopsora pachyrhizi; Table C1, 50 ppm a.i.
  Efficacy in % found: 50%
Phakopsora pachyrhizi; Table C1, 100 ppm a.i.
  Efficacy in % found: 75%

## O=C(Nc1ccccc1)N(Cc1ccc(Cl)cc1)C1CCCC1 [4.005 pencycuron, pencycuron]
Alternaria solani; Alternaria solani, 72 h, Table A1, 25 ppm a.i., 3 days after inoculation, read-out: Efficacy in % found
  pest or weed control at 25 ppm: 5%
Alternaria solani; Alternaria solani, 72 h, Table A1, 50 ppm a.i., 3 days after inoculation, read-out: Efficacy in % found
  pest or weed control at 50 ppm: 21%
Alternaria solani; Alternaria solani, 72 h, Table A1, 100 ppm a.i., 3 days after inoculation, read-out: Efficacy in % found
  pest or weed control at 100 ppm: 33%
Colletotrichum coccodes; Table B1, 25 ppm a.i.
  Efficacy in % found: 33%
Colletotrichum coccodes; Table B1, 50 ppm a.i.
  Efficacy in % found: 33%
Colletotrichum coccodes; Table B1, 100 ppm a.i.
  Efficacy in % found: 33%

## N#Cc1c(Cl)c(Cl)c(Cl)c(C#N)c1Cl [5.004 chlorothalonil, chlorothalonil]
Alternaria solani; Alternaria solani, 72 h, 25 ppm a.i., tomatoes, 3 days after inoculation, read-out: Efficacy in % found
  pest or weed control at 25 ppm: 13%
Alternaria solani; Alternaria solani, 72 h, 50 ppm a.i., tomatoes, 3 days after inoculation, read-out: Efficacy in % found
  pest or weed control at 50 ppm: 33%
Colletotrichum coccodes; Table B2, 25 ppm a.i.
  Efficacy in % found: 8%
Colletotrichum coccodes; Table B2, 50 ppm a.i.
  Efficacy in % found: 8%

## CC(C)(C)C(O)(CCc1ccc(Cl)cc1)Cn1cncn1 (centres unmarked) [Example 1.021, tebuconazole]
Venturia inaequalis; Table E1, 2.5 ppm a.i.
  Efficacy in % found: 4%
Venturia inaequalis; Table E1, 5 ppm a.i.
  Efficacy in % found: 34%
Venturia inaequalis; Table E1, 10 ppm a.i.
  Efficacy in % found: 44%
Puccinia triticina; 25 ppm a.i.
  Efficacy in % found: 22%
Puccinia triticina; 50 ppm a.i.
  Efficacy in % found: 78%
Puccinia triticina; 100 ppm a.i.
  Efficacy in % found: 89%
Septoria tritici; 25 ppm a.i.
  Efficacy in % found: 0%
Septoria tritici; 50 ppm a.i.
  Efficacy in % found: 0%
Septoria tritici; 100 ppm a.i.
  Efficacy in % found: 0%
Alternaria alternata; 0.04 ppm
  Efficacy %: 19%
Alternaria alternata; 0.2 ppm
  Efficacy %: 24%
Alternaria alternata; 1 ppm
  Efficacy %: 36%
Pyricularia oryzae; 0.2 ppm
  Efficacy %: 87%
Pyricularia oryzae; 1 ppm
  Efficacy %: 87% and 89%
[1]
  Ecotoxicity LC50-96 h found: 19.7 ppm a.i.
Sphaerotheca fuliginea; 2.5 ppm a.i.
  Efficacy in % found: 37%
Sphaerotheca fuliginea; 5 ppm a.i.
  Efficacy in % found: 69%
Sphaerotheca fuliginea; 10 ppm a.i.
  Efficacy in % found: 83%

## Cc1nn(C)c(F)c1C(=O)Nc1ccccc1C(C)CC(C)C (centres unmarked) [Example 2.017, penflufen]
Puccinia triticina; 20 ppm a.i.
  Efficacy in % found: 56%
Puccinia triticina; 40 ppm a.i.
  Efficacy in % found: 89%
Puccinia triticina; 80 ppm a.i.
  Efficacy in % found: 100%
Septoria tritici; 20 ppm a.i.
  Efficacy in % found: 29%
Septoria tritici; 40 ppm a.i.
  Efficacy in % found: 0%
Septoria tritici; 80 ppm a.i.
  Efficacy in % found: 0%
Pyricularia oryzae; 1 ppm
  Efficacy %: 44%
Pyricularia oryzae; 5 ppm
  Efficacy %: 91%
[1]
  Ecotoxicity LC50-96 h found: 0.62 ppm a.i.

## COc1ccnc(C(=O)N[C@H]2COC(=O)[C@H](Cc3ccccc3)[C@@H](OC(=O)C(C)C)[C@H](C)OC2=O)c1OCOC(=O)C(C)C [Example 3.025, (3S,6S,7R,8R)-8-benzyl-3-[({3-[(isobutyryloxy)methoxy]-4-methoxypyridin-2-yl}carbonyl)amino]-6-methyl-4,9-dioxo-1,5-dioxonan-7-yl 2-methylpropanoate]
Alternaria solani; [2]
  pest or weed control at 5 ppm: 18%
  pest or weed control at 10 ppm: 18%
  pest or weed control at 20 ppm: 58%
Puccinia triticina; Puccinia triticina, 192 h, read-out: Efficacy in % found, Table H1, 37.5 ppm a.i.
  pest or weed control at 37.5 ppm: 22%
Puccinia triticina; Puccinia triticina, 192 h, read-out: Efficacy in % found, Table H1, 75 ppm a.i.
  pest or weed control at 75 ppm: 67%
Puccinia triticina; Puccinia triticina, 192 h, read-out: Efficacy in % found, Table H1, 150 ppm a.i.
  pest or weed control at 150 ppm: 89%
Septoria tritici; Zymoseptoria tritici, 504 h, read-out: Efficacy in % found, 37.5 ppm a.i.
  pest or weed control at 37.5 ppm: 13%
Septoria tritici; Zymoseptoria tritici, 504 h, read-out: Efficacy in % found, 150 ppm a.i.
  pest or weed control at 150 ppm: 63%
Pyrenophora teres
  Efficacy %: 10%
Pyricularia oryzae; 0.8 ppm
  Efficacy %: 91% and 67%
Pyricularia oryzae; 4 ppm
  Efficacy %: 84% and 85%
Pyricularia oryzae; 20 ppm
  Efficacy %: 100% and 72%
[1]
  Ecotoxicity LC50-96 h found: 1.87 ppm a.i.
Phakopsora pachyrhizi; Table C2, 5 ppm a.i.
  Efficacy in % found: 23%
Phakopsora pachyrhizi; Table C2, 10 ppm a.i.
  Efficacy in % found: 40%
Phakopsora pachyrhizi; Table C2, 20 ppm a.i.
  Efficacy in % found: 63%

## COCC(=O)N(c1c(C)cccc1C)C(C)C(=O)OC (centres unmarked) [Example 12.003, metalaxyl]
Venturia inaequalis; Table E2, 50 ppm a.i.
  Efficacy in % found: 11%
Venturia inaequalis; Table E2, 100 ppm a.i.
  Efficacy in % found: 11%
Venturia inaequalis; Table E2, 200 ppm a.i.
  Efficacy in % found: 19%
Leptosphaeria nodorum; 250 ppm a.i.
  Efficacy in % found: 29%
Leptosphaeria nodorum; 500 ppm a.i.
  Efficacy in % found: 0%
Leptosphaeria nodorum; 1000 ppm a.i.
  Efficacy in % found: 0%
Puccinia triticina; 1000 ppm a.i.
  Efficacy in % found: 30% and 44%
Septoria tritici; 250 ppm a.i.
  Efficacy in % found: 0%
Septoria tritici; 500 ppm a.i.
  Efficacy in % found: 0%
Septoria tritici; 1000 ppm a.i.
  Efficacy in % found: 0%
[1]
  Ecotoxicity LC50-96 h found: >200 ppm a.i.
Phakopsora pachyrhizi; Table C3, 50 ppm a.i.
  Efficacy in % found: 0%
Phakopsora pachyrhizi; Table C3, 100 ppm a.i.
  Efficacy in % found: 0%
Phakopsora pachyrhizi; Table C3, 200 ppm a.i.
  Efficacy in % found: 23%

## N#Cc1c[nH]cc1-c1cccc2c1OC(F)(F)O2 [Example 13.001, fludioxonil]
Venturia inaequalis; Table E1, 5 ppm a.i.
  Efficacy in % found: 8%
Venturia inaequalis; Table E1, 10 ppm a.i.
  Efficacy in % found: 4%
Venturia inaequalis; Table E1, 20 ppm a.i.
  Efficacy in % found: 4%
Puccinia triticina; Puccinia triticina, 192 h, read-out: Efficacy in % found, 20 ppm a.i.
  pest or weed control at 20 ppm: 0%
Puccinia triticina; Puccinia triticina, 192 h, read-out: Efficacy in % found, 40 ppm a.i.
  pest or weed control at 40 ppm: 0%
Puccinia triticina; Puccinia triticina, 192 h, read-out: Efficacy in % found, 80 ppm a.i.
  pest or weed control at 80 ppm: 0%
Puccinia triticina; Puccinia triticina, 192 h, read-out: Efficacy in % found, Table H1, 20 ppm a.i.
  pest or weed control at 20 ppm: 0%
Puccinia triticina; Puccinia triticina, 192 h, read-out: Efficacy in % found, Table H1, 40 ppm a.i.
  pest or weed control at 40 ppm: 0%
Puccinia triticina; Puccinia triticina, 192 h, read-out: Efficacy in % found, Table H1, 80 ppm a.i.
  pest or weed control at 80 ppm: 22%
Septoria tritici; Zymoseptoria tritici, 504 h, read-out: Efficacy in % found, 20 ppm a.i.
  pest or weed control at 20 ppm: 29%
Septoria tritici; Zymoseptoria tritici, 504 h, read-out: Efficacy in % found, 40 ppm a.i.
  pest or weed control at 40 ppm: 29%
Septoria tritici; Zymoseptoria tritici, 504 h, read-out: Efficacy in % found, 80 ppm a.i.
  pest or weed control at 80 ppm: 29%
Pyricularia oryzae; 0.2 ppm
  Efficacy %: 82%
Pyricularia oryzae; 1 ppm
  Efficacy %: 87% and 88%
Pyricularia oryzae; 5 ppm
  Efficacy %: 89% and 79%
[1]
  Ecotoxicity LC50-96 h found: 0.89 ppm a.i.

## O=C(Cc1ccccc1)N/C(=N\OCC1CC1)c1c(C(F)(F)F)ccc(F)c1F [Example 15.008, cyflufenamid]
Venturia inaequalis; Table E2, 5 ppm a.i.
  Efficacy in % found: 0%
Venturia inaequalis; Table E2, 10 ppm a.i.
  Efficacy in % found: 0%
Venturia inaequalis; Table E2, 20 ppm a.i.
  Efficacy in % found: 4%
Leptosphaeria nodorum; 250 ppm a.i.
  Efficacy in % found: 0%
Leptosphaeria nodorum; 500 ppm a.i.
  Efficacy in % found: 0%
Leptosphaeria nodorum; 1000 ppm a.i.
  Efficacy in % found: 0%
Puccinia triticina; 250 ppm a.i.
  Efficacy in % found: 0%
Puccinia triticina; 500 ppm a.i.
  Efficacy in % found: 0%
Puccinia triticina; 1000 ppm a.i.
  Efficacy in % found: 22%
Septoria tritici; 250 ppm a.i.
  Efficacy in % found: 14%
Septoria tritici; 500 ppm a.i.
  Efficacy in % found: 29%
Septoria tritici; 1000 ppm a.i.
  Efficacy in % found: 29%
Pyricularia oryzae; 4 ppm
  Efficacy %: 17%
Pyricularia oryzae; 20 ppm
  Efficacy %: 91%
[1]
  Ecotoxicity LC50-96 h found: 5.2 ppm a.i.

## mancozeb [5.013 mancozeb]
Alternaria solani; 12.5 ppm a.i., tomatoes, 3 days after inoculation
  Efficacy in % found: 28%
Alternaria solani; 25 ppm a.i., tomatoes, 3 days after inoculation
  Efficacy in % found: 33%
Alternaria solani; 50 ppm a.i., tomatoes, 3 days after inoculation
  Efficacy in % found: 77%
Colletotrichum coccodes; Table B2, 12.5 ppm a.i.
  Efficacy in % found: 0%
Colletotrichum coccodes; Table B2, 25 ppm a.i.
  Efficacy in % found: 0%
Colletotrichum coccodes; Table B2, 50 ppm a.i.
  Efficacy in % found: 0%
